Data set [1] relates to synovial sarcoma xenograft model. As to the kind of experiment: Tumor volume in a synovial sarcoma xenograft model (FIG. 1). It counts as in vivo.
The target in data set [2] is T1, BRD9 (Homo sapiens, UniProt Q9H8M2).
T1 sequence (Q9H8M2 1-597): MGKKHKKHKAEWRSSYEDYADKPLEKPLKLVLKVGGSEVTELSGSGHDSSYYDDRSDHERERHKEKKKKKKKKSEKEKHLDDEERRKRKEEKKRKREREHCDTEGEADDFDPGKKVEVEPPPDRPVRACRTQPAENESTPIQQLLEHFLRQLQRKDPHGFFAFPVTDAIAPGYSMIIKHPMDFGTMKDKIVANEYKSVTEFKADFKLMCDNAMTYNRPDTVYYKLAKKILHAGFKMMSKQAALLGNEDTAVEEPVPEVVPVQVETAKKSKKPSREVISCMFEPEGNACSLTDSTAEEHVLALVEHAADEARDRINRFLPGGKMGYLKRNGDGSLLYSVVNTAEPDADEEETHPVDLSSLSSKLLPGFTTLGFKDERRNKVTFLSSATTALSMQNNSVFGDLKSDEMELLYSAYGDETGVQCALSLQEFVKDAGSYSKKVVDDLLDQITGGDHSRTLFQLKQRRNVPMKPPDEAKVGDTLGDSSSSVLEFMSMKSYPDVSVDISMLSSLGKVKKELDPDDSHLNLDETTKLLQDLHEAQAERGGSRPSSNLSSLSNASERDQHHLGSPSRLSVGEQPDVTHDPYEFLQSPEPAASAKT
As to the kind of experiment: In-vivo BRD9 degradation in the Yamato-SS xenograft model. The settings on record: various concentrations and times, FIG. 12.

The next data set concerns the target E3 (Homo sapiens, UniProt Q96SW2). The data set is described as follows: FP-E3 binding (Kd).
In the next data set the target is BRD9-E3 (Homo sapiens, UniProt Q96SW2+Q9H8M2). As to the kind of experiment: BRD9-E3 dimerization. Type of data set: biochemical. The settings on record: not explained.
The target in data set [3] is BRD9 (Mus musculus, UniProt Q3UQU0). As to the kind of experiment: BRD9 degradation in mouse cells (24 h). It counts as cell-based.
In data set [4] the target is BRD9 (Rattus norvegicus, UniProt D4ACF5). As to the kind of experiment: BRD9 degradation in rat cells (24 h). Type of data set: cell-based.
For another data set, the target named is SALL4 (Homo sapiens, UniProt Q9UJQ4). As to the kind of experiment: SALL4 degradation. Conditions: one value given for IKZF1/SALL4/GSPT1. It counts as cell-based.
The next data set concerns the target GSPT1 (Homo sapiens, UniProt P15170). As to the kind of experiment: GSPT1 degradation. Type of data set: cell-based. The settings on record: one value given for IKZF1/SALL4/GSPT1.
The next data set concerns HEPG2. The data set is described as follows: HEPG2 viability. Type of data set: cell-based. Conditions: HEPG2 cells.
A further data set concerns the target CYP 2C19 (Homo sapiens, UniProt P33261). The data set is described as follows: CYP inhibition 2C19. It counts as in vitro ADME.
In the next data set the target is CYP 2B6 (Homo sapiens, UniProt P20813). As to the kind of experiment: CYP inhibition 2B6. It counts as in vitro ADME.
The target in the next data set is CYP 2E1 (Homo sapiens, UniProt P05181). As to the kind of experiment: CYP inhibition 2E1. It counts as in vitro ADME.
Another data set is described as follows: Caco-2 permeability. It counts as in vitro ADME. The settings on record: human. In general terms: Caco-2 monolayers are a common model of the intestinal barrier.
Another data set in a line: IV PK, dog. Type of data set: in vivo.
The subject of the next data set is SA13412. The data set is described as follows: Synovial sarcoma patient derived xenograft (PDX) model (SA13412), tumor volume. Conditions: 40 mg/kg orally once a day, 20 days of treatment. It counts as in vivo, mice. As to the method:
The x-axis is days after start of treatment measured in days and the y-axis is tumor volume measured in mm^3. The mice were dosed with 40 mg/kg of Compound 172 orally once a day. […] The x axis is treatment measured in days and the y axis is mean tumor volume+SEM measured in cubic millimeters (mm^3). Compound 176 was dosed at 50 mg/kg once a day, 25 mg/kg twice a day, and 16.6 mg/kg three times a day.

The target of data set [5] is T1, BRD9. As to the kind of experiment: Western blot of BRD9, BRD4 and BRD7 in Yamato-SS cells. It counts as cell-based. Further details: endogenous in cells; host or cells: Yamato-SS (human synovial sarcoma). The settings on record: FIG. 3. As to the method: After treatment cells were collected, lysed in RIPA buffer supplemented with 2× proteasome/protease inhibitor, and protein concentrations were determined by Pierce™ BCA Protein Assay Kit. Samples were diluted to appropriate concentrations and run in a western blot.

Data set [6] concerns BAF wildtype synovial sarcoma cells (SW982). As to the kind of experiment: Confluence (growth) over time in SW982 cells. Conditions: various concentrations, FIG. 17. It counts as cell-based, human.
Data set [7] concerns the target T1, BRD9. As to the kind of experiment: Western blot of endogenous BRD9 degradation in A204, HS-SY-II, SW982 and Yamato SS cells. It counts as cell-based. Further details: endogenous in cells; host or cells: Yamato-SS (human synovial sarcoma). Conditions: SW982, Yamato SS cells, 6 hours, FIG. 15. As to the method:
The top left represents the malignant human rhabdoid tumor (A204), top right represents the human synovial sarcoma (HS-SY-II), the bottom left represents human soft tissue sarcoma (SW982, BAF wildtype) and the bottom right represents synovial sarcoma (Yamato SS), all via western blot.
Cells were plated at 500,000 cells/well in a 6-well plate and allowed to adhere for 16 hours. Each cell line was treated with Compound 176 serially diluted in DMSO for 6 hours. Cell pellets were collected, lysed with RIPA lysis buffer in the presence of protease inhibitors, and run on a 4-12% acrylamide gel for 45 minutes at 150V. Proteins were transferred to a nitrocellulose membrane and incubated with antibodies against BRD9 (1:1000; Cell Signaling Technology, #71232) or Vinculin (1:10,000; EMD, 05-386) overnight with agitation at 4° C. Blots were thrice washed with tris-buffered saline+0.05% tween-20 and incubated with host-directed fluorescently-conjugated antibodies for 1 hour at room temperature. Blots were thrice washed and imaged on a LiCor Odyssey CLx.
Background: Immunoblotting shows a protein as a band on a membrane.

Data set [8] addresses T1, BRD9. The data set is described as follows: Protein degradation by HiBiT luminescent readout (BRD9, BRD7, BRD4). It counts as cell-based. Further details: endogenously expressing BRD9 with HiBiT fusion tag via CRISPR; host or cells: 293T.166 (BRD9-HiBiT), also expressing LgBiT ectopically. The settings on record: FIG. 11. (The HiBiT peptide binds its large partner to form an active luciferase.)

pIC50, pKd: −log10 of the molar value. Some results are limits rather than exact numbers.

Consider 2 compounds from patent US11691972B2, “Compounds for targeted degradation of BRD9” (C4 Therapeutics, Inc., priority 2020, dated 2023).

BRD9-E3, sequence (Q96SW2 whole entry, one chain of several): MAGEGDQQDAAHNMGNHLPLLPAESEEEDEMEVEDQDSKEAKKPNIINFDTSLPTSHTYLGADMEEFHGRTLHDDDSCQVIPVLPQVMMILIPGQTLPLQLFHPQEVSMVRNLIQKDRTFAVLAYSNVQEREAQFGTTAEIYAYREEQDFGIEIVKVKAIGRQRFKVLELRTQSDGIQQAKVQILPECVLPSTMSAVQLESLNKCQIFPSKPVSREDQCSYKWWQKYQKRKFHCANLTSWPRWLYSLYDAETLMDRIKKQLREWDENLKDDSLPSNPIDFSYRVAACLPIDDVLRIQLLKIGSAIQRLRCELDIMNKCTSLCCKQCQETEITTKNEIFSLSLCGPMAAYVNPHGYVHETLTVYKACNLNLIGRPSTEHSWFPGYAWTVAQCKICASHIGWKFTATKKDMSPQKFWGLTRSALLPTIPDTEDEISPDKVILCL
BRD9 (Mus musculus, UniProt Q3UQU0), sequence (Q3UQU0 whole entry): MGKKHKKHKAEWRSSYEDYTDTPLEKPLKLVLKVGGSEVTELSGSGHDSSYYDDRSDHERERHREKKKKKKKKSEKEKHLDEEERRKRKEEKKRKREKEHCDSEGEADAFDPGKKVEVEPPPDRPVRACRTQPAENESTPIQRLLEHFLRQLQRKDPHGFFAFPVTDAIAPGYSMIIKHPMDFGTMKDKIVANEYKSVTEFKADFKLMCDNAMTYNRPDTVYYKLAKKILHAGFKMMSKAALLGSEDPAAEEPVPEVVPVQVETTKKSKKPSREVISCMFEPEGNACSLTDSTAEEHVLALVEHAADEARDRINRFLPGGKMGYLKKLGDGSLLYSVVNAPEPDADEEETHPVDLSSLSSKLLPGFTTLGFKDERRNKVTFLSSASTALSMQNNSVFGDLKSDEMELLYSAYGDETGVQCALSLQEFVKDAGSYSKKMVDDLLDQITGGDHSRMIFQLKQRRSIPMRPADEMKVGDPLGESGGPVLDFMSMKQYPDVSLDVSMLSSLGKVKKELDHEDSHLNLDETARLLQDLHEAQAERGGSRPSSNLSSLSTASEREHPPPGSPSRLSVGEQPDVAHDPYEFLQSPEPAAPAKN
BRD9 (Rattus norvegicus, UniProt D4ACF5), sequence (D4ACF5 1-761): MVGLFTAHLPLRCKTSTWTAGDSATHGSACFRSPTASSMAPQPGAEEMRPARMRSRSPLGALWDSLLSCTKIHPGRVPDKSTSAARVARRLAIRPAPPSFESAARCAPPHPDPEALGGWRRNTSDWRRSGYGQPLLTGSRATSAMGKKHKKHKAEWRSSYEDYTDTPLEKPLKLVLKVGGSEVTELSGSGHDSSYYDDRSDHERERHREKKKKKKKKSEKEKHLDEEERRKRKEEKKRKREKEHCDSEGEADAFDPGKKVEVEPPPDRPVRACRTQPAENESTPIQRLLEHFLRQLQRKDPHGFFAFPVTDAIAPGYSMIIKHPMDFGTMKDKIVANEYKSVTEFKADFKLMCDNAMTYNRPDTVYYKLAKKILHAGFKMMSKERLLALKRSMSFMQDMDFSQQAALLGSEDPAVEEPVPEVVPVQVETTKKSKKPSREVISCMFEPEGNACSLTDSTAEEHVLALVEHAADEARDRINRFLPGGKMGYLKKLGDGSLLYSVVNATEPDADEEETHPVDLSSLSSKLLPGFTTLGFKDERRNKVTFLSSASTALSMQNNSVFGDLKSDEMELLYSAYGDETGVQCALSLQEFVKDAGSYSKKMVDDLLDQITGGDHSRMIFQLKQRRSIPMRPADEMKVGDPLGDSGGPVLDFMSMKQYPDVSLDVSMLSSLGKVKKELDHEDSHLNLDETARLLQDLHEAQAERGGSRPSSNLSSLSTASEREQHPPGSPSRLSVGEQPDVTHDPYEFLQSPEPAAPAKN
CYP 2E1, sequence (P05181 whole entry): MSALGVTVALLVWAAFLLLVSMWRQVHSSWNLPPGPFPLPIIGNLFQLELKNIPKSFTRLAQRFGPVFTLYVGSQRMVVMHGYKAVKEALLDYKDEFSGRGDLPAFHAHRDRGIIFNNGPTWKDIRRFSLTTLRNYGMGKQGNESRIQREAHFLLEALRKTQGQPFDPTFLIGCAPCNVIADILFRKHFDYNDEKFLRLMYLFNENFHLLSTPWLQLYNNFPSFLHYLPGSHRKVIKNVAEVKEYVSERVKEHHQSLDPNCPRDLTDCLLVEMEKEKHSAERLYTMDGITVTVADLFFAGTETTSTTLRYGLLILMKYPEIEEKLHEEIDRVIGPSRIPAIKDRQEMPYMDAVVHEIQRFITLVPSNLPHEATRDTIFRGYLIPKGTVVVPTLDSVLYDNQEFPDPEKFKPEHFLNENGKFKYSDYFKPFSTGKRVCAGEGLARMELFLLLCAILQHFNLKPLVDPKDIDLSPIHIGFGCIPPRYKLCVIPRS
GSPT1, sequence (P15170 whole entry, species assumed): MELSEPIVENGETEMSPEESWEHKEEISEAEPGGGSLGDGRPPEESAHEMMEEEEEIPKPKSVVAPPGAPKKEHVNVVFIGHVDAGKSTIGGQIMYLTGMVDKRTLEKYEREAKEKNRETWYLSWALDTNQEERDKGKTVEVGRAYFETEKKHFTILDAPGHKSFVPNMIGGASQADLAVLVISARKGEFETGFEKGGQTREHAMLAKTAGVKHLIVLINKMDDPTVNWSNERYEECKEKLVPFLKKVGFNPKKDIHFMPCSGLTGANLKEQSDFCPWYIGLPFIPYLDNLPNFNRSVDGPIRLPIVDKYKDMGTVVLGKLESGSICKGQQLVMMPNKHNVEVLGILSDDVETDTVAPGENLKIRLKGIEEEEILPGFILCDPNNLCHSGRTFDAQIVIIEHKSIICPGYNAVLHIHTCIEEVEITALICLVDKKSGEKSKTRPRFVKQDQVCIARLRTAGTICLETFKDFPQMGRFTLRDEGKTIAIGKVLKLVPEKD
CYP 2B6, sequence (P20813 whole entry): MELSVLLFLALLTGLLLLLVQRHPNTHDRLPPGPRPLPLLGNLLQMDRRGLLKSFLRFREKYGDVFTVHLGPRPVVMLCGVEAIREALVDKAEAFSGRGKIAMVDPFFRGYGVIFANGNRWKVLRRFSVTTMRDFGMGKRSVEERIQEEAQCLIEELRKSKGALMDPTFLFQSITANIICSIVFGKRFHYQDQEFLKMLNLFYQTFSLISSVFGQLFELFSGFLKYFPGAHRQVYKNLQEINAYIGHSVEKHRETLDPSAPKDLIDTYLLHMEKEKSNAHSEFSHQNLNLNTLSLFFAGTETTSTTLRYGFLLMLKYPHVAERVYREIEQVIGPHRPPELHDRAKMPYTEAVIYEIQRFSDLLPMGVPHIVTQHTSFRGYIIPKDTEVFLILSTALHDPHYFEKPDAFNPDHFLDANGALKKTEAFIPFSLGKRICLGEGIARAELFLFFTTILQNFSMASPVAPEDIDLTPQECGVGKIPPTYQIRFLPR
E3, sequence (Q96SW2 whole entry): as the sequence (Q96SW2 whole entry, one chain of several) above
SALL4, sequence (Q9UJQ4 whole entry, species assumed): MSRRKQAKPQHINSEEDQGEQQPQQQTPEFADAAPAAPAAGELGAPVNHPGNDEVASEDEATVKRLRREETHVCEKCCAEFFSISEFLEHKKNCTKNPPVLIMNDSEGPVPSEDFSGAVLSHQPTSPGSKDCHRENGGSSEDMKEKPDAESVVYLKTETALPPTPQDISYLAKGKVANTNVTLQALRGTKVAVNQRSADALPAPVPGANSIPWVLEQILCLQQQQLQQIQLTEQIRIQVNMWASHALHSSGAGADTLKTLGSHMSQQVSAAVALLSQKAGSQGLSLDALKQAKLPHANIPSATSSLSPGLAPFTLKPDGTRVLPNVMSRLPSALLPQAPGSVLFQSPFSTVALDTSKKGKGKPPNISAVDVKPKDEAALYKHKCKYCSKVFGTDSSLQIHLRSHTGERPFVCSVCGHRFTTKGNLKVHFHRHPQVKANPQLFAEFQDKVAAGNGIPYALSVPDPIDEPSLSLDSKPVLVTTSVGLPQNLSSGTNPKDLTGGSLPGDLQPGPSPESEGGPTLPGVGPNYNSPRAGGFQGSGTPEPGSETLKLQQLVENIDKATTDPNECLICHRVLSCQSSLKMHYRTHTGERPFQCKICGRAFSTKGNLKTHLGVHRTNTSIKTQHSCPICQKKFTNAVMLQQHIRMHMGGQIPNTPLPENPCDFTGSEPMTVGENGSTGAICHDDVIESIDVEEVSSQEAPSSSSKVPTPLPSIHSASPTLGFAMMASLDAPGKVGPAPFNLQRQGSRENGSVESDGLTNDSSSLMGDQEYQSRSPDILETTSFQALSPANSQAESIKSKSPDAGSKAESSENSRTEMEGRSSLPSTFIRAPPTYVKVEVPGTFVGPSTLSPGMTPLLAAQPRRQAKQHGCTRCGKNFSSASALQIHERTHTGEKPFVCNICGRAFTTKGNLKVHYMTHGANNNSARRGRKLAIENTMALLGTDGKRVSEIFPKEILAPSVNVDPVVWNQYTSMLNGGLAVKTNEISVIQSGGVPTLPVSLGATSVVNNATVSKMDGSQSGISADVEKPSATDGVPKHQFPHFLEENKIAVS
CYP 2C19, sequence (P33261 whole entry): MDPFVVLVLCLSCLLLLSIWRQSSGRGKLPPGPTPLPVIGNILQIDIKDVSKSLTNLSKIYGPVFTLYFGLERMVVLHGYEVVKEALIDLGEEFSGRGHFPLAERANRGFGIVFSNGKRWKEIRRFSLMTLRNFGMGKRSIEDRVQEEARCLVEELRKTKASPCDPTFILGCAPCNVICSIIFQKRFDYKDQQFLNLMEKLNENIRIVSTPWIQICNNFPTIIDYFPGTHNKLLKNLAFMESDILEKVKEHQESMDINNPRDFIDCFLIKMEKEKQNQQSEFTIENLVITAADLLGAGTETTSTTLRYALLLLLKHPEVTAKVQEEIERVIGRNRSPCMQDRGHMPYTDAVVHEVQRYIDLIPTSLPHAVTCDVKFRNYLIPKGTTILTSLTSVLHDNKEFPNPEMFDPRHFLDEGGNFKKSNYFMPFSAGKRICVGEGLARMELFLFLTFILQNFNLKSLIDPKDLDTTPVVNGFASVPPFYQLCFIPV

As for `COc1cc(-c2cn(C)c(=O)c(C)c2C)cc(OC)c1CN1CCC(N2CCN(c3ccc(NC4CCC(=O)NC4=O)cc3F)CC2)C(F)(F)C1` (centres unmarked) [Compound 172, 3-[4-[4-[1-[[2,6-dimethoxy-4-(1,4,5-trimethyl-6-oxo-3-pyridyl)phenyl]methyl]-3,3-difluoro-4-piperidyl]piperazin-1-yl]-3-fluoro-anilino]piperidine-2,6-dione], in data set [1], the “tumor volume after treatment” value is listed as “strong effect”. Further, at BRD9 [2], the “in-vivo BRD9 degradation (normalized concentration)” value is recorded as “dose dependent in-vivo BRD9 degradation”. Also, the pKd (commonly the Kd on a negative log10 scale, so that one unit is a factor of ten) on E3 is 6.02. For the same compound, the “BRD9-E3 dimerization, first value” on BRD9-E3 (first of three values) came to 120 nM. Further, the “BRD9-E3 dimerization, second value” at BRD9-E3 (second of three values) amounted to 461 nM. For the same compound, at BRD9-E3 (third of three values), the “BRD9-E3 dimerization, third value” is on record as 13%. Further, the “BRD9 degradation mouse cells (24 h), percent” value on BRD9 [3] stood at 36%. Also, the DC50 at BRD9 [3] (read-out: BRD9 degradation mouse cells (24 h), concentration) is 0.099 µM; on BRD9 [4] (read-out: BRD9 degradation rat cells (24 h), concentration) it was 1 µM; at SALL4 it was over 9.99 µM; at GSPT1, over 9.99 µM. For the same compound, at BRD9 [4], the “BRD9 degradation rat cells (24 h), percent” value was 53%. In addition, the “HEPG2 Viability” value with HEPG2 was over 9.99 µM. Further, the pIC50 (in general, the IC50 on a negative log10 scale, so that one unit is a factor of ten) at CYP 2C19 is 4.52; against CYP 2B6, 7.00; against CYP 2E1, 4.52. Moreover, the efflux ratio (usually the permeability from basolateral to apical divided by that in the opposite direction, in the common usage) in “Caco-2 permeability” was found to be 2.64. In addition, the Papp A→B (commonly how fast a substance crosses the layer from the apical side) in the data set “Caco-2 permeability” (A-B) is 71 nm/s. Also, in “Caco-2 permeability” (B-A), the Papp B→A (in general, the apparent permeability from the basolateral to the apical side of a cell layer) amounted to 187 nm/s. Moreover, in the data set “IV PK, dog” (dose-normalised), the “IV PK AUC(0-last)” value is given as 2343 (h*ng/mL)/(mg/kg). Also, the “IV PK Cmax” value in the data set “IV PK, dog” (dose-normalised) is 767 [ng/mL]/(mg/kg). Besides, in “IV PK, dog” (in vivo, read-out: IV PK CL), the clearance was 0.372 L/h/kg. In the data set “IV PK, dog” (in vivo, read-out: IV PK Vdss), the Vd turned out to be 4.36 L/kg. In addition, the half-life in the data set “IV PK, dog” (in vivo, read-out: IV PK t1/2 (converted)) is 8.8 h. For the same compound, the “tumor volume, PDX model (SA13412)” value in the data set with SA13412 is given as “no appreciable tumor growth”. Moreover, the “degradation of BRD9 versus BRD4 and BRD7, western blot” value on BRD9 [5] was “dose response degradation specific to BRD9, and not bromodomain containing proteins BRD4 and BRD7”.
As for `COc1cc(-c2cn(C)c(=O)c(C)c2C)cc(OC)c1CN1CCC(N2CCN(c3ccc(NC4CCC(=O)NC4=O)cc3F)CC2)C(F)(F)C1` (single isomer, unassigned) [Compound 176, 3-[4-[4-[1-[[2,6-dimethoxy-4-(1,4,5-trimethyl-6-oxo-3-pyridyl)phenyl]methyl]-3,3-difluoro-4-piperidyl]piperazin-1-yl]-3-fluoro-anilino]piperidine-2,6-dione], in data set [6], the “confluence as a percentage of control over time” value is on record as “lack of growth inhibition”. The “degradation of alpha BRD9, western blot” value at BRD9 [7] is given as “dose dependent degradation of alpha BRD9”. Besides, the “protein degradation levels by HiBiT luminescent readout, BRD9 versus BRD7 and BRD4” value at BRD9 [8] was “selective degradation”.
